In patent publication US7763645B2, “Carvedilol dihydrogen phosphate monohydrate” (Wanbury Limited, priority 2008, dated 2010):

Experiments:
[1] = Dissolution study of capsule formulation (USP Type 1); assay type: physicochemical; conditions: 0.1 N hydrochloric acid; for % Dissolved: 100 rpm
Experimental: The dissolution rate of carvedilol dihydrogen phosphate monohydrate as a capsule formulation was compared with that of carvedilol phosphate hemihydrate similarly prepared.
The samples for the dissolution study were prepared as follows:
Carvedilol phosphate, 25.0 mg, was accurately weighed along with lactose and other fillers. The mix was filled inside a colorless gelatin capsule shell, size #2. Six such capsules were subjected to dissolution studies, each for the monohydrate and hemi-hydrate material.
The intrinsic solubility of the monohydrate form versus the hemihydrate form of carvedilol is done using the general guidelines for characterizing the dissolution rate as per the United States Pharmacopoeia.
The dissolution conditions were:
Medium: 0.1 N hydrochloric acid, 900 ml
Speed of rotations: 100 per minute.
Temp: 37 degree±0.05 degrees.
The percent dissolved: was determined by UV spectrophotometry at a wavelength of 280 nm.

[2] = Hydrate stability: drying at 110° C. and re-exposure to 75% relative humidity at 37° C.; assay type: physicochemical
Experimental: The carvedilol dihydrogen phosphate monohydrate prepared by the present processes is dried till constant weight for 4-10 hours at 40-45° C. under vacuum to obtain carvedilol dihydrogen phosphate monohydrate having bound water content in the range of 3.0-4.0% wt/wt; the theoretical moisture content for carvedilol dihydrogen phosphate monohydrate is 3.54% wt/wt. Further, the bound water content was removed by drying the material at 110° C. till the moisture content below 0.5%. The original moisture content was regained after about 10-15 hours when exposed to 75% relative humidity at 37° C. (in air).

[3] = 10 min, 25.0 mg capsule, 900 ml, 37 degree
[4] = 20 min, 25.0 mg capsule, 900 ml, 37 degree
[5] = 30 min, 25.0 mg capsule, 900 ml, 37 degree
[6] = 45 min, 25.0 mg capsule, 900 ml, 37 degree
[7] = 60 min, 25.0 mg capsule, 900 ml, 37 degree

Row | Compound | % Dissolved [1, 3] | % Dissolved [1, 4] | % Dissolved [1, 5] | % Dissolved [1, 6] | % Dissolved [1, 7] | % Dissolved ([1]; 90 min, 25.0 mg capsule, 900 ml, 37 degree, Phosphate Hemihydrate) | % Dissolved ([1]; 90 min, 25.0 mg capsule, 900 ml, 37 degree, listed as hemihydrate form, Phosphate Hemihydrate) | Time to regain original moisture content ([2]; after drying at 110° C. to moisture below 0.5%, exposed to 75% relative humidity at 37° C. (in air)) | Stability of hydrate form ([2]; drying at 110° C., then 75% relative humidity at 37° C. (in air)) | Time to complete dissolution ([1]; 25.0 mg capsule, 900 ml, 37 degree) | % Dissolved ([1]; 90 min, 25.0 mg capsule, 900 ml, 37 degree) | Rate of dissolution compared with hemihydrate form ([1]; capsule)
1 | Carvedilol Dihydrogen Phosphate Hemihydrate [Hemihydrate form, reference compound] | 45.95% | 63.75% | 68.43% | 75.99% | 82.68% | 88.95% | less than 90% | – | – | – | – | –
2 | COc1ccccc1OCCNCC(O)COc1cccc2[nH]c3ccccc3c12.O=P(O)(O)O (centres unmarked) [Monohydrate form, 1-(9H-carbazol-4-yloxy)-3-[[2-(2-methoxyphenoxy)ethyl]amino]-propan-2-ol] | 46.20% | 68.28% | 82.45% | 95.89% | 96.81% | – | – | 10 to 15 h | stable and does not convert into the dihydrate or hemihydrate form | ≤ 90 min | 101.55% | faster rate of dissolution than the hemihydrate form
